Experimental findings from publication PMC6747455, “Active Site Architecture and Reaction Mechanism Determination of Cold Adapted β-D-galactosidase from Arthrobacter sp. 32cB” (International Journal of Molecular Sciences, 2019) are described below.

Experiment [1] has as its target T1, ArthβDG (Arthrobacter sp. 32cB, UniProt A0A023UGN9).
T1 construct: recombinant, pBAD/Myc-His A vector (pBAD-Bgal32cB), E. coli LMG 194 host; ion exchange and size exclusion; five-domain protein, 110 kDa; functional dimer; GH2 family; catalytic residues E441 and E517
Nature of the experiment: hydrolysis in crystal, product seen by X-ray. The class given is biochemical. The following applies: crystal soaked 1 min.

The target of experiment [2] is T1, ArthβDG. The experiment in a line: hydrolysis in crystal, blue coloration. Format: biochemical. The following applies: 3 to 20 molar excess; blue within 3 min; galactose found in the structure.
The target in experiment [3] is ArthβDG_E441Q mutein (β-D-galactosidase from Arthrobacter sp. 32cB, E441Q) (Arthrobacter sp. 32cB). The experiment in a line: crystal structure; crystals grown in 25–45% Tacsimate, pH 6.0–8.0, seeded; space group P3121, one protein monomer in the asymmetric unit; dimer shown in Figure 2.

T1 sequence (A0A023UGN9 1-1010): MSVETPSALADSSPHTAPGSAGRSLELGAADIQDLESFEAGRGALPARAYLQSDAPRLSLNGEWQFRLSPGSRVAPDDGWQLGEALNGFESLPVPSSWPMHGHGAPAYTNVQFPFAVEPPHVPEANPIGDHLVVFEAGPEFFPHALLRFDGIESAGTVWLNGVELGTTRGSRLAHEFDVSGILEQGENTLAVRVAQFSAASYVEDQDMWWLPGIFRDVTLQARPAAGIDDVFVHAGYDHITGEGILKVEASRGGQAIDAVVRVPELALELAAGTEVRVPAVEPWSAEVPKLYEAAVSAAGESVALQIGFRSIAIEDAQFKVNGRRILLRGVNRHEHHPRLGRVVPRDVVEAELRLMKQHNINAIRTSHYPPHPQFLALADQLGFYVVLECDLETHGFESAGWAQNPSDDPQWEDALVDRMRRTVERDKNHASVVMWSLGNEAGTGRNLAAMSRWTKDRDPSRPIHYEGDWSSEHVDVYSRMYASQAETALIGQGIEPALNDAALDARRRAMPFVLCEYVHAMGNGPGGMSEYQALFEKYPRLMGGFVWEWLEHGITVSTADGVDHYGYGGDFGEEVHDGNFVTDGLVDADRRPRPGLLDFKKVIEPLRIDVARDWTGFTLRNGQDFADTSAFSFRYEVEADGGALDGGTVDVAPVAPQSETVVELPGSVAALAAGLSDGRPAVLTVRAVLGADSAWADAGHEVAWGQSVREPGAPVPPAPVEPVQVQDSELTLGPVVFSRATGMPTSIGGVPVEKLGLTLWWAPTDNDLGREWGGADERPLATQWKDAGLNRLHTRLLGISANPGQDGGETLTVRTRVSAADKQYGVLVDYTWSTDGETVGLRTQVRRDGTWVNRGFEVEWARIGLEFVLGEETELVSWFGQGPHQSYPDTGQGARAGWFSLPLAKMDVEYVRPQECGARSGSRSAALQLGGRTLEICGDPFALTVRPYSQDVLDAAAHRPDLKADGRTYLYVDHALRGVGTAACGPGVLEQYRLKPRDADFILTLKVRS

As for `OC[C@H]1O[C@@H](O[C@H]2[C@H](O)[C@@H](O)C(O)O[C@@H]2CO)[C@H](O)[C@@H](O)[C@H]1O` (stereo partly drawn) [LAC, lactose], the “hydrolysis in crystal, product seen by X-ray” value in experiment [1] is recorded as “the active enzyme performed hydrolysis of lactose in crystal”.
Consider `OC[C@H]1O[C@@H](Oc2c[nH]c3ccc(Br)c(Cl)c23)[C@H](O)[C@@H](O)[C@H]1O` [X-gal, 5-bromo-4-chloro-3-indolyl-β-D-galactopyranoside], for which the “hydrolysis in crystal, blue coloration” value in experiment [2] was “the enzyme in the crystal was in its active form and performed hydrolysis of X-gal”.
As usually defined, the stoichiometry N is the number of molecules, sites or subunits per partner or assembly. “ArthβDG_E441Q mutein (β-D-galactosidase from Arthrobacter sp. 32cB, E441Q) (enzyme)” registered a stoichiometry N in experiment [3] of 2.
